Values of other authors as cited in patent US20030162721A1, “PHARMACEUTICAL COMPOSITION CONTAINING PEPTICHEMIO” (priority 1997, published 2003).

System: RPMI 8322 melanoma cells

Substance: L-prolyl-m-sarcolysyl-L-p-fluorophenylalanine [PSF]
- times more toxic than m-sarcolysine (relative to m-sarcolysine): 28 times
- times more toxic than melphalan (relative to melphalan): 35 times
